Read-outs that look alike come from different tables or passages of the source.
Tests used:
Experiment in all cases: pAKT (T308) ELISA Assay
Type in all cases: cell-based
[1] = test system: pAKT (T308) in SK-BR-3 cells (PI3Kα wt); conditions: Homo sapiens, heregulin stimulation, read-out: Cellular pAKT (T308) IC50 PI3Kαwt SK-BR-3 hereg
Procedure: (§1) In another embodiment, the pAKT ELISA Assay was performed by seeding cells onto 96-well plates (Corning, 3904) in their respective growth media at the densities listed in Table 5. Cells were incubated at 37° C., 5% CO2 for 48 h (except MDA-MB-453 cells which were cultured in the absence of CO2). Compounds were serially diluted in DMSO and subsequently diluted in serum-free DMEM. Test compounds were added to cells in serum-free DMEM at a final concentration of 0.3% DMSO and incubated for 3 h. Cells were lysed with 130 μL of ice-cold RIPA lysis buffer (50 mM Tris-HCl, pH 7.5; 0.5% sodium deoxycholic acid; 1% Triton X-100; 0.1% SDS; 150 mM NaCl) with protease and phosphatase inhibitors (1 mM EDTA, 1 mM NaF, 20 mM β-glycerophosphate, 1 mM Na-orthovanadate, Complete-Mini EDTA-free, Roche, 11836170001, and Phosphatase Inhibitor Cocktail I, Sigma, P2850), directly in 96-well plates. Cells were lysed on ice for 60-120 min at 4° C. The supernatants were added directly to capture ELISA plates previously pre-coated with rabbit anti-AKT capture antibody. ELISA assays for pAKT(T308) and total AKT were performed with the pAKT(T308) ELISA kit (Cell Signaling Technology, 7144) and AKT1 ELISA kit (Cell Signaling Technology, 7142). For the pAKT(T308) ELISA, 85 μL of cell lysate was added to each well. For the total AKT1 ELISA, 15 μL of cell lysate and 85 μL of Starting Block buffer (Pierce, 37543) were added to each well. The plates were incubated overnight at 4° C. with gentle shaking, then washed 3 times with 200 μL of TBST (20 mM Tris, pH 7.4; 150 mM NaCl; 0.1% Tween 20) for 30 s each, and incubated for 1 h with 100 μL of detection antibody (mouse anti-pAKT(T308) antibody or mouse anti-AKT1 antibody). After 3 washes with TBST, the plates were incubated with a 1:1000 dilution of a horseradish peroxidase-labeled anti-mouse IgG (Cell Signaling Technology, 7076) in 100 μL of Starting Block buffer for 0.5 h. After 3 washes with TBST, 50 μL of SuperSignal ELISA Femto substrate solution (Thermo Scientific, 37075A) and 50 μL of SuperSignal ELISA enhancer solution mixture (Thermo Scientific, 37075B) were added to each well and the plates were incubated for approximately 2 min and protected from light. The wells were measured for luminescence using a Wallac plate reader at wavelength of 560 nm. After normalization of pAKT signal to total AKT1 signal, IC50 values were determined relative to the DMSO-treated control.

[2] = test system: pAKT (T308) in T-47D cells (PI3Kα H1047R); conditions: Homo sapiens, T47D, IGF1 stimulation
Procedure: as §1

[3] = test system: pAKT (T308) in SK-OV-3 cells (PI3Kα H1047R); conditions: Homo sapiens, IGF1 stimulation, read-out: Cellular pAKT (T308) IC50 PI3KαH1047R SK-OV-3 IGF1
Procedure: as §1

[4] = test system: pAKT (T308) in HCT 116 cells (PI3Kα H1047R); conditions: Homo sapiens, IGF1 stimulation, read-out: Cellular pAKT (T308) IC50 PI3KαH1047R HCT 116 IGF1
Procedure: as §1

[5] = test system: pAKT (T308) in MDA-MB-453 cells (PI3Kα H1047R); conditions: Homo sapiens, heregulin stimulation, read-out: Cellular pAKT (T308) IC50 PI3KαH1047R MDA-MB-453 hereg
Procedure: as §1

[6] = read-out: Cellular pAKT (T308) IC50 PI3KαH1047R T-47D IGF1
[7] = read-out: pAKT (T308) IC50 T-47D PI3Kα H1047R IGF1

SMILES	IC50 [1] [nM]	IC50 [2, 6] [nM]	IC50 [2, 7] [nM]	IC50 [3] [nM]	IC50 [4] [nM]	IC50 [5] [nM]
COc1ccc2c(N3CCOc4ccc(-c5cnc6nc(C)[nH]c6c5)cc4C3)nc(CN(C)C)nc2c1 [Compound 696]	1240	213	213	956	400	117
Cc1nc2ncc(-c3ccc4c(c3)CN(c3nc(CN(C)C)nc5c3CC(C)(C)CC5)CCO4)cc2[nH]1 [Compound 693]	339	73	73	–	168	40
CCNc1nc2ccc(-c3ccc4c(c3)CN(c3ncnc(NCC)c3C)CCO4)cc2[nH]1 [Compound 699]	4540	207	207	1240	719	639
Cc1nc2cc(-c3ccc4c(c3)CN(c3nc(CN(C)C)nc(C)c3C(C)C)CCO4)cnc2[nH]1 [Compound 694]	115	102	102	–	130	18
CCNc1nc2ccc(-c3ccc4c(c3)CN(c3ccnc5cc(F)ccc35)CCO4)cc2[nH]1 [Compound 698]	2860	258	258	438	462	118

From patent US20140080810A1 (Exelixis, Inc., priority 2010, published 2014)
